In patent US10633547B2, “Method for reducing microbial attack of industrial products” (Thor GmbH, priority 2016, dated 2020):

Legend:
[1] = tested on: newly introduced microorganisms; test: shelf life of dispersion paint after post-preservation; conditions: 50 ppm 2-methyl-1,2-benzisothiazolin-3-one and 10 ppm zinc oxide added after decomposition of CMIT by cysteine
Description: The paint produced in this manner was now free of microorganisms through the use of the effective broad-spectrum biocide 5-chloro-2-methylisothiazolin-3-one, but susceptible to newly introduced microorganisms, which can infiltrate the paint during storage, due to the decomposition of the biocide by cysteine.
In order to protect the paint from such a microbial attack during storage, 50 ppm 2-methyl-1,2-benzisothiazolin-3-one and 10 ppm zinc oxide, based on the dispersion paint, were added to the dispersion paint for post-preservation.

[2] = decomposition of 2-methylisothiazolin-3-one in aqueous dispersion paint using sodium thiosulfate; type: physicochemical
From the text: However, it is disadvantageous that, according to the described method, said isothiazolinones, particularly MIT, are not quantitatively and/or irreversibly destroyed, as a result of which they are still contained in the products and reaction products and still can cause problems for people prone to allergic reactions, and/or cause contact dermatitis or aerogenic contact dermatitis in highly sensitive people.

[3] = decomposition of 5-chloro-2-methylisothiazolin-3-one in dispersion paint by cysteine, HPLC; type: physicochemical; conditions: 3 hours after adding 50 ppm cysteine, based on the dispersion paint
From the text: In order to produce a paint, which is harmless for allergy suffers with respect to the 5-chloro-2-methylisothiazolin-3-one and 2-methylisothiazolin-3-one, from the dispersion paint, which contained significant quantities of 5-chloro-2-methylisothiazolin-3-one, these isothiazolin-3-ones were decomposed by adding 50 ppm cysteine, based on the dispersion paint.

[4] = tested on: microorganisms introduced by the individual components of the paint; test: microbiological testing of dispersion paint preserved with 5-chloro-2-methylisothiazolin-3-one; type: cell-based; conditions: 20 ppm 5-chloro-2-methylisothiazolin-3-one with <1 wt % 2-methylisothiazolin-3-one; water-based dispersion paint; growth detectable in individual components
Description: 20 ppm 5-chloro-2-methylisothiazolin-3-one, with a content of 2-methylisothiazolin-3-one of <1 wt %, was added to a preservative-free styrene acrylate dispersion. The styrene acrylate dispersion preserved in this manner was then used to produce a water-based dispersion paint. The paint produced had the following composition: • 25.7 wt % water • 0.2 wt % acrylate-based wetting and dispersion agents • 0.2 wt % mineral oil-based defoamer • 2.0 wt % water softener (sodium polyphosphate) • 0.2 wt % ammonia • 4.0 wt % titanium oxide (pigment) • 51.0 wt % calcium carbonate (filler) • 5.0 wt % talcum (filler) • 0.4 wt % cellulose ether • 2.0 wt % organic solvent for lowering the minimum film-forming temperature • 9.0 wt % of the styrene acrylate dispersion preserved with 20 ppm 5-chloro-2-methylisothiazolin-3-one • 20 ppm 5-chloro-2-methylisothiazolin-3-one, with a content of 2-methylisothiazolin-3-one of <1 wt %

Cn1sc2ccccc2c1=O [2-methyl-1,2-benzisothiazolin-3-one]
shelf life of the paint [1]: at least 6 months

Cn1sccc1=O [2-methylisothiazolin-3-one]
destruction of 2-methylisothiazolin-3-one using sodium thiosulfate [2]: could not be quantitatively or irreversibly destroyed

Cn1sc(Cl)cc1=O [5-chloro-2-methylisothiazolin-3-one]
5-chloro-2-methylisothiazolin-3-one detectable in the dispersion paint by HPLC [3]: no more 5-chloro-2-methylisothiazolin-3-one was detectable | microbial growth in the dispersion paint [4]: no microbial growth was found
